The text below walks through data of patent publication US20230190774A1, “METHOD OF USING SUBSTRATES OF AKR1Bl/AKR1B10 AS ANTI-CANCER DRUGS” (Beijing Normal University Hong Kong Baptist University …, priority 2015, published 2023).

One series deals with CaCo2 cells. Put plainly: Cytotoxicity assay (cell survival rate, MTT). The class given is cell-based. To be noted: for Effect on toxicity of glyceraldehyde and diacetyl: BSO with 1.25/0.625 mM substrate, NAC with 2.5/1.25 mM substrate. The procedure:
(§1) HepG2 cells, SKOV3 cells, HCT116 cells and CaCo2 cells were cultured in DMEM medium, SW480 cells in 1640 medium, and HT29 cells in McCoy’s 5A medium. All cell culture media were supplemented with 10% FBS, 1% PSN, and cells were cultured in a humidified incubator containing 5% CO2 at 37° C. In cytotoxicity assays, cells were seeded at 1 × 10^5 cells/well in 96 well plates with full medium. In GSH assay and Western blot analysis, cells were seeded at 3× 10^6 cells/well in 6 well plates.
(§2) The AKR1Bs substrates’ cytotoxicity was assessed by cell survival rate using MTT assay. After the cells were treated with the substrates for the length of time indicated, MTT was added to a final concentration of 0.5 mg/ml in each well of a 96-well plate, and the plates were incubated at 37° C. for 4 hour. Then DMSO was added to dissolve the formazan product, the amount of which is proportional to the number of live cells. The absorbance of dissolved dye was measured at 540 nm using an automatic microplate reader.

The subject of another series is HCT116 cells. Briefly: Cytotoxicity assay (cell survival rate, MTT). The class given is cell-based. To be noted: for Effect on toxicity of glyceraldehyde and diacetyl: BSO with 1.25/0.625 mM substrate, NAC with 2.5/1.25 mM substrate. The procedure:
as §1, §2

In a further series the test system is HepG2 cells. Briefly: Cytotoxicity assay (cell survival rate, MTT). The class given is cell-based. To be noted: for Effect on toxicity of glyceraldehyde and diacetyl: BSO (0.3 mM) with 1.25/0.625 mM substrate, NAC with 2.5/1.25 mM substrate; for Cytotoxicity of AKR1Bs substrate (cell survival rate): substrate alone, 2DG for 72 hours. How it is done: as §1, §2

The subject of another series is SKOV3 cells. Briefly: Cytotoxicity assay (cell survival rate, MTT). The class given is cell-based. Particulars: for Effect on toxicity of glyceraldehyde and diacetyl: BSO (0.3 mM) with 1.25/0.625 mM substrate, NAC with 2.5/1.25 mM substrate; for Cytotoxicity of AKR1Bs substrate (cell survival rate): substrate alone, 2DG for 72 hours. The procedure:
as §1, §2

Another series deals with HT29 cells. Put plainly: Cytotoxicity assay (cell survival rate, MTT). The class given is cell-based. Particulars: for Sensitivity to 2DG after pretreatment: pretreated 24 hours before addition of 2DG. How it is done: as §2, with “HepG2 cells, SKOV3 cells, HCT116 cells and CaCo2 cells were cultured in DMEM medium, SW480 cells in 1640 medium, and HT29 cells in McCoy’s 5A medium. […] In cytotoxicity assays, cells were seeded at 1 × 10^5 cells/well in 96 well plates with full medium. In GSH assay and Western blot analysis, cells were seeded at 3× 10^6 cells/well in 6 well plates. The AKR1Bs” for “The AKR1Bs”

The subject of a further series is SW480 cells. Briefly: Cytotoxicity assay (cell survival rate, MTT). It counts as cell-based. To be noted: for Sensitivity to 2DG after pretreatment: pretreated 24 hours before addition of 2DG. How it is done: as §2, with “HepG2 cells, SKOV3 cells, HCT116 cells and CaCo2 cells were cultured in DMEM medium, SW480 cells in 1640 medium, and HT29 cells in McCoy’s 5A medium. […] In cytotoxicity assays, cells were seeded at 1 × 10^5 cells/well in 96 well plates with full medium. In GSH assay and Western blot analysis, cells were seeded at 3× 10^6 cells/well in 6 well plates. The AKR1Bs” for “The AKR1Bs”

Series [1] relates to AKR1B1. Put plainly: Western blot of AKR1B1 protein level in treated cells. It counts as cell-based, human. How it is done:
as §1
(§3) Cells were lysed on ice with the protein extraction reagent. Total protein (30 µg) per sample were loaded onto 10% SDS-polyacrylamide gels and separated at 75V, and then electrotransferred to polyvinylidene difluoride (PVDF) membranes overnight at 15 V. Membranes were then soaked in 5% nonfat milk in TBS at room temperature for 1 hour and then incubated with rabbit anti-AKR1B1 antibodies (1:3000) or rabbit anti-AKR1B10 antibodies (1:3000) at room temperature for 2 hours. After being washed, the membranes were incubated in HRP-conjugated goat anti-rabbit or goat anti-mouse IgG secondary antibodies (1:5000) for 1 hour at room temperature, followed by washing and incubation with ECL reagents for 1 min. β-actin monoclonal mouse antibodies (1:5000) was used as reference to assess the relative amounts of proteins loaded per lane.

Series [2] has as its system AKR1B10. Put plainly: Western blot of AKR1B10 protein level in treated cells. The class given is cell-based, human. How it is done: as §1, §3
In series [3] the target is AKR1B1 (Homo sapiens, UniProt P15121). Particulars: ND = no detectable activity or less than 32 nmol/min/mg; cited from earlier work.
The target in series [4] is T1, AKR1B10 (Homo sapiens, UniProt O60218). Particulars: ND = no detectable activity or less than 32 nmol/min/mg; cited from earlier work.
T1 sequence (O60218 whole entry): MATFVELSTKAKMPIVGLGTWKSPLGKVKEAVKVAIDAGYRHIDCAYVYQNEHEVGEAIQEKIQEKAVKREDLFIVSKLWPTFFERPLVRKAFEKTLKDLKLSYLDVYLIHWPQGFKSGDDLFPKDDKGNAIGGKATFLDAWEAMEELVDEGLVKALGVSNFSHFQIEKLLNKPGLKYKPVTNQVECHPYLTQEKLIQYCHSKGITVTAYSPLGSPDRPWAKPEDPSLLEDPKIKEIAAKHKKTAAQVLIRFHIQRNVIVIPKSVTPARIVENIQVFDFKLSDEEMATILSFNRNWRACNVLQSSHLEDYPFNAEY
Series [5] concerns the target T1, AKR1B10. Put plainly: Enzyme activity assay (NADPH oxidation), purified AKR1B10. It counts as biochemical. To be noted: 20 mM substrate, pH 7.0, 30° C. The procedure: Assay of AKR1B1 and AKR1B10 enzymes activities were conducted in 1 ml of the reaction mixture containing 135 mM sodium phosphate buffer (pH 6.2 for AKR1B1 or pH 7.0 for AKR1B10), 0.2 mM NADPH, 0.3 M ammonium sulfate, 2 µg purified protein and 20 mM of their substrate as indicated. The reaction mix was incubated at 30° C. for 30 minutes (min). Protein-free blank controls were included. The decrease of NADPH was monitored by spectrophotometer at 340 nm. Enzyme activity was calculated as the amount of NADPH oxidized/min/mg of protein (Shen Y et al., Chem Biol Interact. 2011, 191(1-3): 192-198).

The conditions of series [6]: for Death Rate / Death/Total: i.v., n=8. How it is done: ICR mice (18-22 g) were acquired from the Laboratory Animal Services Centre, The Chinese University of Hong Kong. These animals were housed in an animal room with 12 h of day and dark cycles, and the temperature maintained at around 25° C. There were 4 male and 4 female in each treatment and control group. They were treated with either diacetyl or glyceraldehyde. Diacetyl and glyceraldehyde were dissolved with saline and administered to the mice by intravenous injection with the amount indicated. […] Mortality was recorded daily for the calculation of […] (LD50). All surviving animals were euthanized with diethyl-ether at the end of the experiment.

For a further series, the system named is HepG2 tumor xenograft. To be noted: 80 mg/kg, tail vein, daily for 21 days. The procedure: Six-week-old male BALB/C nude mice were purchased from the Laboratory Animal Unit of the University of Hong Kong. Mice were allowed to acclimate to laboratory conditions for 1 week before cancer cells injection. […] Treatment was initiated when the tumor grew to about 200±100 mm3. […] Mice were randomized and allocated to different groups. They received daily tail vein injection for 3 weeks of one of the following: glyceraldehyde (500 mg/kg body weight); diacetyl (80 mg/kg body weight); or normal saline. Mice were weighted and the sizes of the tumors were measured with calipers every 3 days. Tumor volumes were calculated with the formula: length×width2/2. Animals were humanely killed at the end of the experiment and their tumors were weighed.

Setting [7] is: substrate alone, 2DG for 72 hours.

Each structure is given as a SMILES string. “Also recorded” adds a separate entry of the source. Like-named read-outs stand apart in the source and are kept apart here. Where a SMILES comes first, the peptide text is derived from it. The star is where a group is joined. Cbz = O=C(OCc1ccccc1)*

Take `CCCCS(=N)(=O)CCC(N)C(=O)O` [BSO, L-buthionine-[S,R]-sulfoximine]: the “Effect on toxicity of glyceraldehyde and diacetyl” value in the series with CaCo2 cells is “enhanced the toxicity”; in the series on HCT116 cells, “enhanced the toxicity”; in the series on HepG2 cells, “more HepG2 and SKOV3 cells were killed; also recorded: enhanced the toxicity”; with SKOV3 cells it was “more HepG2 and SKOV3 cells were killed; also recorded: enhanced the toxicity”.
On to `CC(C)C[C@H](NC(=O)[C@H](Cc1ccccc1)NC(=O)c1cnccn1)B(O)O` [Bortezomib], for which the “Sensitivity to 2DG after pretreatment” value in the series with HT29 cells and in the series with SW480 cells was “significantly more cells were killed by 2DG” each time. Moreover, the “AKR1B1 protein level (western blot)” value in the series on AKR1B1 [1] (HT29 cells) is reported as “increased”; with AKR1B1 [1] (SW480 cells), “induced”. Also, the “AKR1B10 protein level (western blot)” value in the series with AKR1B10 [2] (HT29 cells) is listed as “increased”; with AKR1B10 [2] (SW480 cells) it was “induced only AKR1B1”.
In the case of `O=C[C@H](O)[C@@H](O)[C@@H](O)[C@H](O)CO` [D-Galactose], the “AKR1B1 activity, amount of NADPH (nmol) oxidized per min per mg of protein” value (“AKR1B1 activity, amount … per mg of protein” below) at AKR1B1 [3] is recorded as 193 nmol/min/mg. Further, the “AKR1B10 activity, amount of NADPH (nmol) oxidized per min per mg of protein” value (“AKR1B10 activity, amount … per mg of protein” for short) at AKR1B10 [4] was 65 nmol/min/mg.
Take `O=C[C@H](O)[C@@H](O)[C@H](O)[C@H](O)CO` [D-Glucose]: on AKR1B1 [3], the “AKR1B1 activity, amount … per mg of protein” value was 129 nmol/min/mg. Moreover, the “AKR1B10 activity, amount … per mg of protein” value on AKR1B10 [4] is 65 nmol/min/mg.
As for `CC(=O)C(C)=O` [Diacetyl, diacetyl], the “Cytotoxicity of AKR1Bs substrate (cell survival rate)” value in the series on CaCo2 cells (setting [7]) is “dose dependently and preferentially kill”; in the series with HCT116 cells (setting [7]), “dose dependently and preferentially kill”; with HepG2 cells it was “dose-dependently and preferentially kill”; in the series with HepG2 cells (listed as diacetyl) it was “dose dependently and preferentially kill”; in the series with SKOV3 cells it was “dose-dependently and preferentially kill”; in the series with SKOV3 cells (listed as diacetyl), “dose dependently and preferentially kill”. In addition, the “Cytotoxicity of AKR1Bs substrate (cell survival rate)” value in the series with HT29 cells (setting [7]) and in the series on SW480 cells (setting [7]) was “more resistant” in each case. Moreover, at AKR1B10 [5], the “Efficiency as substrate of AKR1B10 (rate of NADPH depletion)” value is “better substrate for AKR1B10 than for AKR1B1; also recorded: best substrate”. Besides, the LD50 in series [6] (ICR mice, intravenous injection daily for 14 days) is on record as 410 mg/kg BW. The “Death Rate” value in series [6] (dose 300 mg/kg BW) is 0%; in series [6] (dose 360 mg/kg BW) it was 37.5%; in [6] (dose 432 mg/kg BW), 62.5%; in [6] (dose 518 mg/kg BW), 87.5%; in series [6] (dose 622 mg/kg BW), 100.0%. The Death/Total in series [6] (dose 300 mg/kg BW) was 0/8; in series [6] (dose 360 mg/kg BW), “⅜”; in series [6] (dose 432 mg/kg BW), “⅝”; in series [6] (dose 518 mg/kg BW) it was “⅞”; in series [6] (dose 622 mg/kg BW), 8/8. In the series on HepG2 tumor xenograft, the Tumor volume result is on record as “significantly reduced”. For the same molecule, in the series on HepG2 tumor xenograft, the Tumor weight result is listed as “significantly reduced”. Moreover, on AKR1B1 [3], the “AKR1B1 activity, amount … per mg of protein” value was 725 nmol/min/mg. Besides, the “AKR1B10 activity, amount … per mg of protein” value at AKR1B10 [4] is 2329 nmol/min/mg.
With `CC(C)C[C@@H](C=O)NC(=O)[C@H](CC(C)C)NC(=O)[C@H](CC(C)C)NC(=O)OCc1ccccc1` [MG-132] (Cbz-Leu-Leu-Leu-aldehyde), the “Sensitivity to 2DG after pretreatment” value in the series on HT29 cells and in the series on SW480 cells was “significantly more cells were killed by 2DG” in each case. The “AKR1B1 protein level (western blot)” value in the series with AKR1B1 [1] (HT29 cells) and in the series with AKR1B1 [1] (SW480 cells) was “able to increase” throughout. Further, the “AKR1B10 protein level (western blot)” value in the series with AKR1B10 [2] (HT29 cells) and with AKR1B10 [2] (SW480 cells) was “able to increase” each time.
In the case of `CC(=O)C=O` [Methyglyoxal], the “AKR1B1 activity, amount … per mg of protein” value at AKR1B1 [3] is reported as 942 nmol/min/mg. The “AKR1B10 activity, amount … per mg of protein” value at AKR1B10 [4] is reported as 7458 nmol/min/mg.
As for `CC(=O)N[C@@H](CS)C(=O)O` [NAC, N-acetyl-cysteine], the “Effect on toxicity of glyceraldehyde and diacetyl” value with CaCo2 cells, with HCT116 cells, with HepG2 cells and in the series with SKOV3 cells was “able to protect the cells” in each case.
`O=Cc1ccccn1` [Pyridine-2-aldehyde]: the “AKR1B1 activity, amount … per mg of protein” value at AKR1B1 [3] is 632 nmol/min/mg. The “AKR1B10 activity, amount … per mg of protein” value at AKR1B10 [4] is listed as 4645 nmol/min/mg.
In the case of `O=Cc1ccc([N+](=O)[O-])cc1` [p-Nitrobenzaldehyde], the “AKR1B1 activity, amount … per mg of protein” value at AKR1B1 [3] is recorded as 760 nmol/min/mg. The “AKR1B10 activity, amount … per mg of protein” value at AKR1B10 [4] is given as 4480 nmol/min/mg.
